The results in this text go back to ChEMBL document CHEMBL1122062, “Inhibitors of adenosine deaminase. Studies in combining high-affinity enzyme-binding structural units. erythro-1,6-Dihydro-6-(hydroxymethyl)-9-(2-hydroxy-3-nonyl)purine and erythro-9-(2-hydroxy-3-nonyl)purine” (J Med Chem, 1982).

Assay [1] has as its target T1, Adenosine deaminase (Bos taurus) (UniProt P56658).
T1 sequence (whole entry): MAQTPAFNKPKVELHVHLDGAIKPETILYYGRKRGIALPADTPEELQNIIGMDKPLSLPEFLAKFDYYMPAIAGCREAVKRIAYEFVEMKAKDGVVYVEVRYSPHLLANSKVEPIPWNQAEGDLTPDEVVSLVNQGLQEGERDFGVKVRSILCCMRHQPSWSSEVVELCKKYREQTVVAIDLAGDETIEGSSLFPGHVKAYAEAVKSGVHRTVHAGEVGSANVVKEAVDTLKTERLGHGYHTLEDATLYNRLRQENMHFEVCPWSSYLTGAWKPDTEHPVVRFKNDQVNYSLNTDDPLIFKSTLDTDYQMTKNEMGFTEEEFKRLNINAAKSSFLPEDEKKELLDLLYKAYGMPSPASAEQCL

For assay [2], the target named is T2, Adenosine deaminase (Bos taurus, UniProt P56658).
T2 sequence (P56658 whole entry): T1 sequence (whole entry)
The assay is described as follows: Ability to inhibit calf intestinal adenosine deaminase (ADA); No data.

Assay [3] in a line: Upper limit of relative enzyme affinity of compound to the substrate.
Assay [4] concerns the target T2, Adenosine deaminase. The assay is described as follows: Ability to inhibit calf intestinal adenosine deaminase (ADA).

The compound `OC[C@H]1O[C@@H](n2cnc3c2N=CNC[C@H]3O)C[C@@H]1O` displayed an REA in assay [1] of 2.8e+06. Broadly, the Ki is a dissociation constant, usually derived from enzyme kinetics or from competition with a known ligand. The low end stands for higher affinity, the high end for lower affinity. At Adenosine deaminase [2], `CCCCCCC(C(C)O)n1cnc2c1N=CNC2CO` (stereo unspecified) had an inhibition constant Ki of 12000 nM. Further, in assay [3], the Km/Ki is 2.1.

On to `CCCCCCC(C(C)O)n1cnc2cncnc21` (stereo unspecified), for which the Km/Ki in assay [3] was found to be 36. At Adenosine deaminase [4], the affinity corresponds to a Ki of 680 nM.

`CCCCCC[C@@H]([C@@H](C)O)n1cnc2c(N)ncnc21` [EHNA] showed an inhibitory constant (Ki) on Adenosine deaminase [2] of 1.3 nM.
